A short description of assay [1]: HIV-1 AD8 envelope cell-cell fusion blockers – cherry-pick, dose response (AID 652062).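 Further: luciferase signal from cell-cell fusion driven by HIV-1 clade B AD8 Env; potency is for inhibitors of fusion seen as a drop in luminescence.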 It counts as functional, cell-based.
Assay [2] in a line: blockers of HIV-1 envelope-mediated cell-cell fusion – cherry-pick, dose response (AID 652057). The class given is functional, cell-based.
A short description of assay [3]: off-target signal loss in HeLa-CEM21 co-culture – HeLa F-luc CTL cells, cherry-picked, counter-screen for HIV-1 Env fusion inhibitor project, dose response (AID 652040).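 Further: potency for signal decrease marking cytotoxic or nonspecific inhibition.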 It counts as functional, cell-based.
Assay [4] can be described thus: blockers of HIV-1 ZM109 envelope-driven cell-cell fusion – HeLa effector, CEM target cells, luciferase, cherry-pick, dose response (AID 652058).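 Further: luciferase signal from HIV-1 Env mediated cell-cell fusion of effector and target cells.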 The class given is functional, cell-based.
Assay [5] addresses T1, Short transient receptor potential channel 4 (Mus musculus, UniProt Q9QUQ5).
T1 sequence (Q9QUQ5 whole entry): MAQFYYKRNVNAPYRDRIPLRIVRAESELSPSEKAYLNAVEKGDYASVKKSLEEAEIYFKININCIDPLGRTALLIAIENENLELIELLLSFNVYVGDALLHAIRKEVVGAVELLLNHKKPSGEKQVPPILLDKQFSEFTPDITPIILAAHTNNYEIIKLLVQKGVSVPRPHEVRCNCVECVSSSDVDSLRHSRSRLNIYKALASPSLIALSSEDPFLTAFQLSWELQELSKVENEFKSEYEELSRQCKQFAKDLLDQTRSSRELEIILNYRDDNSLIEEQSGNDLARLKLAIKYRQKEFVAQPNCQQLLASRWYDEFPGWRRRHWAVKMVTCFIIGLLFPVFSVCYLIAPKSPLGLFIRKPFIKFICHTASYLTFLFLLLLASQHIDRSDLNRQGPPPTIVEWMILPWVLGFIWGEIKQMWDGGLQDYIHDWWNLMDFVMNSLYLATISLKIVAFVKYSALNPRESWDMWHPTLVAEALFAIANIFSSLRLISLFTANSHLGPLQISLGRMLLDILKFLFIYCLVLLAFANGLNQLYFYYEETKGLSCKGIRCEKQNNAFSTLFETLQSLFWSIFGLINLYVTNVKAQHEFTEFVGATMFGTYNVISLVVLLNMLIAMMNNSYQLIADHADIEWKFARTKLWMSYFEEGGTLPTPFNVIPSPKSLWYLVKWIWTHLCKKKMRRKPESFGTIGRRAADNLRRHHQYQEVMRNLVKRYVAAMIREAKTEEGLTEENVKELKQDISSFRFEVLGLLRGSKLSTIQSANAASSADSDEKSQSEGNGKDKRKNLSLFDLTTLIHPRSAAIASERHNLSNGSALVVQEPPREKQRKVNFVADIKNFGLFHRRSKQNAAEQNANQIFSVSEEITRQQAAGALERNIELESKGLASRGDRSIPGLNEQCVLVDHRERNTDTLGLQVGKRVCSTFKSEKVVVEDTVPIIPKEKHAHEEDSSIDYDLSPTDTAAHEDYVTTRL
Kind of assay: calcium entry via TRPC4 opening agents – cell-based, HEK293 TRPC4/mu-opioid, Fluo-4 calcium, dose response (AID 434937). It counts as functional.

Assay [6] in a line: viability loss in CEM21 cells – cell-based, CellTiter-Glo luminescence, cherry-picked, cytotoxicity control for viral fusion inhibitor project, dose response (AID 652042).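 Further: potency for signal decrease meaning cytotoxicity.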 It counts as functional. On the technique in general: ATP-based viability assays read luminescence as a measure of living cells.
Assay [7] has as its target Albumin (Bos taurus, UniProt P02769). The assay can be described thus: Counterscreen for inhibitors of T-cell receptor (TCR)-CD3 interaction: Fluorescence-based biochemical high throughput dose response assay to identify inhibitors of T-cell receptor (TCR)-CD3 interaction using a TAMRA-labeled BSA probe. It counts as functional.
Assay [8] is described as follows: alpha-synuclein stem-loop luciferase translation blockers – H4 neuroglioma cells, luminescence, confirmation (AID 1988). It counts as functional, cell-based.
For assay [9], the system named is INS1. The assay can be described thus: INS-1E survival protection against cytokine death – cell-based, luminescence, retest, dose response (AID 449756).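 Further: cell death triggered by IL-1 beta plus TNF-alpha plus IFN-gamma mixture; protective hits raise ATP signal compared with cytokine alone wells.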 Particulars: Rattus norvegicus. It counts as functional.
Assay [10] has as its system H9c2. The assay can be described thus: cells. It counts as functional, cell-based. Particulars: Rattus norvegicus, H9c2, Myocardium.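 Further: confirmatory concentration-response retest of ultra-high-throughput screening hits for modulation of myocardial damage; cell death induced by hydrogen peroxide oxidative stress; compound pretreatment for 60 min then peroxide exposure for 2 h; potency is for protecting the cells against peroxide damage rather than for killing them.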
A short description of assay [11]: luciferase reporter signal suppression in cells – H4 neuroglioma cells, luminescence, dose response (AID 1990). It counts as functional, cell-based. A general note: In a reporter assay the amount or activity of a reporter protein is the signal.
The nature of assay [12]: Luminescence Cell-Based Dose Response HTS to Identify Inhibitors of 5'UTR Stem-Loop Driven Prion Protein mRNA Translation in H4 Neuroglioblastoma Cells. [Related pubchem assays: 1827 (Project Summary), 1813 (Primary HTS)]. It counts as functional.
Assay [13] can be described thus: cells. It counts as functional, cell-based.
Assay [14] in a line: cells. The class given is functional, cell-based. The source holds these as a separate data set.
For assay [15], the target named is T1, Short transient receptor potential channel 4. The assay can be described thus: block of DAMGO-driven TRPC4 calcium entry – cell-based, HEK293 TRPC4/mu-opioid, Fluo-4 calcium, dose response (AID 434942).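 Further: potency of inhibitors blocking the TRPC4 calcium response.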 The class given is functional.
Assay [16] has as its target T2, Long-chain-fatty-acid--AMP ligase FadD28 (Mycobacterium tuberculosis, UniProt P9WQ59).
T2 sequence (P9WQ59 whole entry): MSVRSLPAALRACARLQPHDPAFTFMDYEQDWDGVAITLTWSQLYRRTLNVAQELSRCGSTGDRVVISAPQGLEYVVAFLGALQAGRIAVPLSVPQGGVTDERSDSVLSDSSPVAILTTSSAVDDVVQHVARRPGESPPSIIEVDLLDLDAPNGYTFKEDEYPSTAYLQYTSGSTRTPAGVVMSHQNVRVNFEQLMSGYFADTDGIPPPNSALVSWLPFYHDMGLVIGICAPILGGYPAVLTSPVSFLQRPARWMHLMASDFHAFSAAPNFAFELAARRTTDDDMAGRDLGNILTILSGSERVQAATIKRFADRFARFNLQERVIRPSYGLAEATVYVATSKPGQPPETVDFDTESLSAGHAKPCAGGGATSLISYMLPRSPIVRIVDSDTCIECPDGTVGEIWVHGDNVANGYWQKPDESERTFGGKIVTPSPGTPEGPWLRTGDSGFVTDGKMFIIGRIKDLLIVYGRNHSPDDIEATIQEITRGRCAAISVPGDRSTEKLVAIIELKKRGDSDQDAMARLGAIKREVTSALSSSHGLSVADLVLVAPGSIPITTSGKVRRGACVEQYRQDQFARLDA
The assay can be described thus: Fluorescence polarization aasay to screen for inhibitors that compete for the binding of FadD28 to a bisubstrate Measured in Biochemical System Using Plate Reader - 2147-01_Inhibitor_Dose_CherryPick_Activity. The class given is functional, Mycobacterium tuberculosis H37Rv. Background: Fluorescence polarisation rises when a labelled molecule tumbles more slowly, as on binding a larger partner.

The source made the active and inactive calls. A value given as a limit tells only on which side of the number the result lay.

A word on the AC50: it is the concentration giving half of the maximal activity seen. Broadly, the EC50 is the concentration needed to bring the measured effect to its halfway point. The IC50 is the midpoint of a concentration-inhibition curve.

Albumin, sequence (P02769 whole entry): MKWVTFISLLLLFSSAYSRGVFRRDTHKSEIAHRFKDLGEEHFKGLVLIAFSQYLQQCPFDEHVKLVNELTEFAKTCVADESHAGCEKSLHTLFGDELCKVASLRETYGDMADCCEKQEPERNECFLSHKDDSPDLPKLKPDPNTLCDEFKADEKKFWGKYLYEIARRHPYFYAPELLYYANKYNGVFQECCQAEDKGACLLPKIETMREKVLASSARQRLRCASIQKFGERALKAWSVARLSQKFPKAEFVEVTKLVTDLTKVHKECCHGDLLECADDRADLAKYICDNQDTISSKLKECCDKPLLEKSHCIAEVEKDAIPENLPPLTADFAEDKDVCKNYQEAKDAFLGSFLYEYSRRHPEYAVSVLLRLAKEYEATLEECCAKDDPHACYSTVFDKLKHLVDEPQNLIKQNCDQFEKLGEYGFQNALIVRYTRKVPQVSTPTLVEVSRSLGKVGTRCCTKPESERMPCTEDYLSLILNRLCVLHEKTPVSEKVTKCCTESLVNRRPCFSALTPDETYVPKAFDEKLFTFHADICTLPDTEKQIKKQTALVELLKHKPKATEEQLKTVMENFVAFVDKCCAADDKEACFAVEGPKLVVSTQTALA

As for `CCOc1cc(CNCCc2c[nH]c3ccccc23)cc(Cl)c1OC`, the AC50 was 5.22 µM (active) in assay [1]; 1.77 µM (active) in assay [2]; 2.85 µM (active) in assay [3]; 0.843 µM (active) in assay [4]; 21.5 µM (active) in [6]. For the same molecule, the EC50 in assay [5] was 3.35 µM (active).

Take `Cc1ccc(/C=C2\SC(=S)N(CCC(=O)NNC(=O)c3ccccc3O)C2=O)cc1`: the IC50 in assay [7] was > 94.1 µM (inactive).

For the molecule `Cc1cc(Cl)ccc1OCC(=O)N1CCCN(C(=O)COc2ccc(Cl)cc2C)CC1`, the AC50 in [1] is 2.45 µM (active); in assay [2] it was 1.98 µM (active); in assay [3], 2.71 µM (active); in assay [4] it was 2.8 µM (active); in assay [6] it was 67.3 µM (active).

With `O=C(CCN1C(=O)/C(=C\c2ccccc2)SC1=S)NNC(=O)c1ccccc1O`, the IC50 in [7] is > 94.1 µM (inactive).

For the molecule `COc1ccc2nc(Nc3nc(O)cc(CSc4nc5ccccc5[nH]4)n3)nc(C)c2c1`, the AC50 was 4 µM (active) in [1]; 2.16 µM (active) in assay [2]; 3.06 µM (active) in assay [3]; 3.57 µM (active) in assay [4]; 20.5 µM (active) in assay [9]; 5.77 µM (active) in [6]. The results for the EC50 in assay [8], in assay [11] and in assay [12] were 10.2 µM (active), 5.63 µM (active) and 10.2 µM (active), respectively. Besides, in assay [10], the IC50 was > 79 µM (inactive).

Take `CCOC(=O)C(NCCc1ccccc1)(NC(C)=O)C(F)(F)F` (stereo unspecified): the EC50 in assay [13] was > 29.9 µM (inactive). The IC50 in assay [14] is > 29.9 µM (inactive).

`COc1ccc(-c2nn(C)c(=O)c3ccccc23)cc1NC(=O)COc1ccccc1`: the AC50 in assay [3] is 46.2 µM (active); in assay [6] it was 42.7 µM (active).

Turning to `O=C(CNC(=O)c1ccccc1Cl)N/N=C/C=C/c1ccccc1`, in assay [13], the EC50 was > 29.9 µM (inactive). Further, in assay [14], the IC50 was > 29.9 µM (inactive).

On to `CC1Oc2ccccc2C=C1/C=N/Nc1ccc(C(=O)O)cc1` (stereo unspecified), for which the EC50 in assay [15] is 2.99 µM (active). Further, the concentration at half-maximal activity (AC50) in assay [16] is 34.2 µM (active).

Values taken from ChEMBL document CHEMBL1201862, “PubChem BioAssay data set” (2004).
